Values quoted from earlier work as cited in patent publication US12009562B2, “High solubility iron hexacyanides” (Lockheed Martin Energy, LLC, priority 2012, dated 2024).

## O.O.O.O.O.O.O.O.O.O.[C-]#N.[C-]#N.[C-]#N.[C-]#N.[C-]#N.[C-]#N.[Fe+2].[Na+].[Na+].[Na+].[Na+] [Na4Fe(CN)6.10H2O]
  concentration reported upon saturating 2 M NaOH: ~0.6 M
